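Method: 48-hour compound exposure of cells in 96-well plates, five concentrations, linear interpolation of endpoints. At the GI50, growth is halved. TGI is the concentration that stops growth completely.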
Assays:
Experiment in all cases: DTP human tumour cell line panel, 48 h
SK-MEL-28 melanoma = test system: SK-MEL-28 melanoma
A498 renal = test system: A498 renal
SK-MEL-2 melanoma = test system: SK-MEL-2 melanoma
SN12C renal = test system: SN12C renal
UACC-257 melanoma = test system: UACC-257 melanoma
TK-10 renal = test system: TK-10 renal
HCT-15 colon = test system: HCT-15 colon
PC-3 prostate = test system: PC-3 prostate
T-47D breast = test system: T-47D breast
SK-MEL-5 melanoma = test system: SK-MEL-5 melanoma

Row | Compound | GI50 (SK-MEL-28 melanoma) | TGI (SK-MEL-28 melanoma) | GI50 (A498 renal) | TGI (A498 renal) | GI50 (SK-MEL-2 melanoma) | TGI (SK-MEL-2 melanoma) | GI50 (SN12C renal) | TGI (SN12C renal) | GI50 (UACC-257 melanoma) | TGI (UACC-257 melanoma) | GI50 (TK-10 renal) | TGI (TK-10 renal) | GI50 (HCT-15 colon) | TGI (HCT-15 colon) | GI50 (PC-3 prostate) | TGI (PC-3 prostate) | GI50 (T-47D breast) | TGI (T-47D breast) | GI50 (SK-MEL-5 melanoma) | TGI (SK-MEL-5 melanoma)
1 | [Cu].c1ccc2c(c1)C1=NC2=NC2=NC(=NC3=NC(=NC4=NC(=N1)c1ccccc14)c1ccccc13)c1ccccc12 | > 100 µM | > 100 µM | > 100 µM | > 100 µM | > 100 µM | > 100 µM | > 100 µM | > 100 µM | > 100 µM | > 100 µM | > 100 µM | > 100 µM | > 100 µM | > 100 µM | > 100 µM | > 100 µM | > 100 µM | > 100 µM | > 100 µM | > 100 µM
2 | O=S(=O)(c1ccccc1)N1CCC1c1ccccc1 (centres undefined) | – | > 100 µM | – | > 100 µM | – | > 100 µM | – | > 100 µM | – | > 100 µM | – | > 100 µM | – | > 100 µM | – | – | – | – | – | > 100 µM
3 | CCCN1CCC(Oc2cc(Nc3nc(Nc4cccc(F)c4C(N)=O)c4cc[nH]c4n3)c(OC)cc2Cl)CC1 | 2.82 µM | 6.09 µM | 2.95 µM | 6.47 µM | 4.5 µM | 8.32 µM | 3.97 µM | 7.99 µM | 3.28 µM | 6.75 µM | 3.14 µM | 7.01 µM | 1.44 µM | 6.84 µM | 2.55 µM | 6.73 µM | 1.32 µM | 3.12 µM | 1.23 µM | 2.67 µM
4 | Clc1cccc(-c2cc(-c3ccc4c(c3)OCCO4)[nH]n2)c1 | 27.2 µM | 57 µM | 1.73 µM | 18.5 µM | 18.9 µM | 74.9 µM | 5.38 µM | 40.1 µM | 25.4 µM | 55.3 µM | 13.9 µM | 56.1 µM | 1.11 µM | 33.5 µM | 4.87 µM | 45.8 µM | 3.64 µM | 53.8 µM | 5.9 µM | 39.1 µM
5 | Nc1nc(N)c2cc(S(=O)(=O)c3cccc(C(F)(F)F)c3)ccc2n1 | 85.1 µM | > 100 µM | – | – | 11 µM | 73.2 µM | 6.34 µM | > 100 µM | – | – | 7.78 µM | > 100 µM | 3.09 µM | > 100 µM | 3.36 µM | > 100 µM | – | – | 2.98 µM | > 100 µM
6 | O=c1[nH]c(=O)n(Cc2ccc(C34CC5CC(CC(C5)C3)C4)c(O)c2)cc1F | 4.62 µM | 21.8 µM | 10.2 µM | 22.1 µM | 15.8 µM | 39.4 µM | 13.5 µM | 26.8 µM | – | – | 15.4 µM | 33.7 µM | 10.2 µM | 22.3 µM | – | – | 13.6 µM | 44.4 µM | 11.2 µM | 23.3 µM
7 | CCOP(=O)(OCC)C(C(=O)OC)C(=O)C(=O)Nc1cccc([N+](=O)[O-])c1 (centres undefined) | – | > 100 µM | – | > 100 µM | – | > 100 µM | – | > 100 µM | – | > 100 µM | – | > 100 µM | – | > 100 µM | – | – | – | – | – | > 100 µM
8 | CN1CCN(CCCOC(=O)c2c3c(n4ccccc24)C(=O)c2ncccc2C3=O)CC1 | 0.08 µM | 4.25 µM | – | – | 0.0313 µM | 0.274 µM | < 0.01 µM | 0.294 µM | 0.0219 µM | 1.3 µM | 0.113 µM | 21.6 µM | < 0.0143 µM | 1.52 µM | < 0.0232 µM | 16.7 µM | 1.89 µM | 29.6 µM | 0.0269 µM | 0.592 µM
9 | CN(c1ccccc1)c1nc(=[N+](C)C)ss1 | – | > 100 µM | – | > 100 µM | – | > 100 µM | – | > 100 µM | – | > 100 µM | – | > 100 µM | – | > 100 µM | – | – | – | – | – | > 100 µM
10 | Cc1cc(C)c2c(c1)CSCc1cc(C)cc(C)c1-2 | – | > 100 µM | – | 79.9 µM | – | 43.9 µM | – | > 100 µM | – | 74.1 µM | – | > 100 µM | – | > 100 µM | – | – | – | – | – | 65 µM
11 | Cc1cc2c(cc1Cl)SC(=Nc1ccc(Cl)cc1)N(S(=O)(=O)c1ccc(Br)s1)S2(=O)=O | 24.6 µM | > 100 µM | 5.02 µM | 26.2 µM | 35.3 µM | > 100 µM | 14.1 µM | 32.6 µM | 16 µM | 38.7 µM | 19.9 µM | 49.6 µM | 11.9 µM | 29.7 µM | 12.5 µM | 27.1 µM | – | – | 13.7 µM | 43.3 µM
12 | O=C1/C(=C/c2cc(O)c(O)c(O)c2)Oc2cc(O)cc(OC3OC(CO)C(O)C(O)C3O)c21 (centres undefined) | – | > 100 µM | – | > 100 µM | – | 47.7 µM | – | 33 µM | – | – | – | > 100 µM | – | 57.5 µM | – | – | – | – | – | 31 µM
13 | O=c1c(-c2cccc3ccccc23)c(-c2cccc3ccccc23)c1=O | – | > 100 µM | – | 18.1 µM | – | > 78.2 µM | – | > 100 µM | – | > 39.6 µM | – | > 100 µM | – | > 52.9 µM | – | – | – | – | – | 40 µM
14 | CCN(CC)CCN1C(=O)C2C3C(C)=CC(OC(C)=O)(CC3C)C2C1=O (centres undefined) | – | – | > 100 µM | > 100 µM | > 100 µM | > 100 µM | > 100 µM | > 100 µM | > 100 µM | > 100 µM | > 100 µM | > 100 µM | > 100 µM | > 100 µM | > 100 µM | > 100 µM | > 100 µM | > 100 µM | > 100 µM | > 100 µM
15 | c1ccc2[nH]c(-c3ccc(Nc4nc(N5CCCC5)nc5[nH]ncc45)cc3)nc2c1 | 0.181 µM | 0.338 µM | 1.51 µM | 3.01 µM | 1.71 µM | 3.37 µM | 1.67 µM | 4.15 µM | 0.229 µM | 0.632 µM | 1.91 µM | 3.53 µM | 0.255 µM | 0.763 µM | 1.61 µM | 4.71 µM | – | – | 1.29 µM | 2.56 µM

Reference: PubChem BioAssay (NCI)
